Measurements reported in ChEMBL document CHEMBL3600310 (J Med Chem, 2015).
Activity calls are given as the source filed them. No cut-off for these calls is given here.

Experiments:
[1] = Cytotoxicity against human Bel7404 cells after 72 hrs by MTT assay; format: functional, cell-based; conditions: BEL-7404, 72 h
[2] = Cytotoxicity against human SKHEP1 cells after 72 hrs by MTT assay; format: functional, cell-based; conditions: SK-HEP1, 72 h
A549 [3] = experiment: Cytotoxicity against human A549 cells after 72 hrs by MTT assay; format: functional, cell-based; conditions: A549, 72 h
NCI-H446 = experiment: Cytotoxicity against human NCI-H446 cells after 72 hrs by MTT assay; format: functional, cell-based; conditions: NCI-H446, 72 h
[4] = Cytotoxicity against human MV-3 cells after 72 hrs by MTT assay; format: functional, cell-based; conditions: MV-3, 72 h
HCT-116 [5] = experiment: Cytotoxicity against human HCT116 cells after 72 hrs by MTT assay; format: functional, cell-based; conditions: HCT-116, 72 h
K562 = experiment: Cytotoxicity against human K562 cells after 72 hrs by MTT assay; format: functional, cell-based; conditions: K562, 72 h
[6] = Cytotoxicity against human SW579 cells after 72 hrs by MTT assay; format: functional, cell-based; conditions: SW579, 72 h
PC-3 = experiment: cells; conditions: Homo sapiens, PC-3, 72 h
Description: Cytotoxicity against human PC3 cells after 72 hrs by MTT assay

MDA-MB-435 = experiment: Cytotoxicity against human MDA-MB-435 cells after 72 hrs by MTT assay; format: functional, cell-based; conditions: MDA-MB-435, 72 h
[7] = target: T1, DNA topoisomerase 1 (Homo sapiens) (UniProt P11387); experiment: Inhibition of Top1 (unknown origin)-mediated pBR322 DNA cleavage using ethidium bromide staining at 100 uM after 15 mins by electrophoresis analysis
T1 sequence (whole entry): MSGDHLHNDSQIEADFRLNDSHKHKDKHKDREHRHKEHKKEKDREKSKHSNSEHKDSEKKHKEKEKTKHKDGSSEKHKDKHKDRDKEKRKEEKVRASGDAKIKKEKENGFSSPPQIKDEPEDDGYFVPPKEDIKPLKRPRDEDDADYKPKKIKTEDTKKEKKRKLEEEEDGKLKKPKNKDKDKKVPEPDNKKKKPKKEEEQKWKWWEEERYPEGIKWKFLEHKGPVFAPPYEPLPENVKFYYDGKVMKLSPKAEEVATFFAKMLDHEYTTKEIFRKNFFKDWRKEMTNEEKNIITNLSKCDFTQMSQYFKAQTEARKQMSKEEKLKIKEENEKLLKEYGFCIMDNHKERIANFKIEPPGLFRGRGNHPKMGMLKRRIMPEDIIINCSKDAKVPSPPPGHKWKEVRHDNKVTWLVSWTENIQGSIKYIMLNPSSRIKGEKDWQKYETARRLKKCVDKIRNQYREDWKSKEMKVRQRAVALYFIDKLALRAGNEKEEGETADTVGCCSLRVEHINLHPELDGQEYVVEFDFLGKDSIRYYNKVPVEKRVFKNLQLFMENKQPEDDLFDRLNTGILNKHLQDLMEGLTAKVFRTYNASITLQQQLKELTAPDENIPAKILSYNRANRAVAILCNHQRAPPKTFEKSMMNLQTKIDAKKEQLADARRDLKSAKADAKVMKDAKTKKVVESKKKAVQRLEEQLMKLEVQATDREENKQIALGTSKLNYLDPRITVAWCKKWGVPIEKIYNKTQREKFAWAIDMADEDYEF

[8] = target: T1, DNA topoisomerase 1 (Homo sapiens); experiment: Inhibition of Top1 (unknown origin)-mediated pBR322 DNA cleavage using ethidium bromide staining at 50 uM after 15 mins by electrophoresis analysis
HCT-116 [9] = experiment: Antitumor activity against human HCT116 cells xenografted in BALB/C mouse assessed as tumor growth inhibition at 2 mg/kg, ip for 5 days; format: functional, organism-based
A549 [10] = experiment: Induction of apoptosis in human A549 cells assessed as apoptotic cells at 5 uM after 48 hrs by flow cytometry analysis; format: functional
A549 [11] = experiment: Cell cycle arrest in human A549 cells assessed as accumulation at G2/M phase using propidium iodide staining at 5 uM after 12 hrs by flow cytometry analysis; format: functional, cell-based
A549 [12] = experiment: Induction of apoptosis in human A549 cells assessed as change in cell morphology at 5 uM after 36 hrs by light microscope analysis; format: functional, cell-based
Mus musculus [13] = experiment: Toxicity in human A549 cells xenografted BALB/C mouse assessed as mortality at 2 mg/kg, ip for 5 days; format: organism-based; conditions: in vivo, 120 h
Mus musculus [14] = experiment: Toxicity in human A549 cells xenografted BALB/C mouse assessed as change in body weight at 2 mg/kg, ip for 5 days; format: organism-based; conditions: in vivo, 120 h
A549 [15] = experiment: Antitumor activity against human A549 cells xenografted in BALB/C mouse assessed as tumor growth inhibition at 2 mg/kg, ip for 5 days; format: functional, organism-based
A549 [16] = experiment: Cell cycle arrest in human A549 cells assessed as accumulation at G2/M phase using propidium iodide staining at 5 uM after 36 hrs by flow cytometry analysis; format: functional
[17] = target: DNA topoisomerase 2-alpha (Homo sapiens) (UniProt P11388); experiment: Inhibition of Top2alpha (unknown origin)-mediated pBR322 DNA cleavage using ethidium bromide staining at 100 uM after 30 mins by electrophoresis analysis
Sequence of DNA topoisomerase 2-alpha (Homo sapiens) (P11388 whole entry): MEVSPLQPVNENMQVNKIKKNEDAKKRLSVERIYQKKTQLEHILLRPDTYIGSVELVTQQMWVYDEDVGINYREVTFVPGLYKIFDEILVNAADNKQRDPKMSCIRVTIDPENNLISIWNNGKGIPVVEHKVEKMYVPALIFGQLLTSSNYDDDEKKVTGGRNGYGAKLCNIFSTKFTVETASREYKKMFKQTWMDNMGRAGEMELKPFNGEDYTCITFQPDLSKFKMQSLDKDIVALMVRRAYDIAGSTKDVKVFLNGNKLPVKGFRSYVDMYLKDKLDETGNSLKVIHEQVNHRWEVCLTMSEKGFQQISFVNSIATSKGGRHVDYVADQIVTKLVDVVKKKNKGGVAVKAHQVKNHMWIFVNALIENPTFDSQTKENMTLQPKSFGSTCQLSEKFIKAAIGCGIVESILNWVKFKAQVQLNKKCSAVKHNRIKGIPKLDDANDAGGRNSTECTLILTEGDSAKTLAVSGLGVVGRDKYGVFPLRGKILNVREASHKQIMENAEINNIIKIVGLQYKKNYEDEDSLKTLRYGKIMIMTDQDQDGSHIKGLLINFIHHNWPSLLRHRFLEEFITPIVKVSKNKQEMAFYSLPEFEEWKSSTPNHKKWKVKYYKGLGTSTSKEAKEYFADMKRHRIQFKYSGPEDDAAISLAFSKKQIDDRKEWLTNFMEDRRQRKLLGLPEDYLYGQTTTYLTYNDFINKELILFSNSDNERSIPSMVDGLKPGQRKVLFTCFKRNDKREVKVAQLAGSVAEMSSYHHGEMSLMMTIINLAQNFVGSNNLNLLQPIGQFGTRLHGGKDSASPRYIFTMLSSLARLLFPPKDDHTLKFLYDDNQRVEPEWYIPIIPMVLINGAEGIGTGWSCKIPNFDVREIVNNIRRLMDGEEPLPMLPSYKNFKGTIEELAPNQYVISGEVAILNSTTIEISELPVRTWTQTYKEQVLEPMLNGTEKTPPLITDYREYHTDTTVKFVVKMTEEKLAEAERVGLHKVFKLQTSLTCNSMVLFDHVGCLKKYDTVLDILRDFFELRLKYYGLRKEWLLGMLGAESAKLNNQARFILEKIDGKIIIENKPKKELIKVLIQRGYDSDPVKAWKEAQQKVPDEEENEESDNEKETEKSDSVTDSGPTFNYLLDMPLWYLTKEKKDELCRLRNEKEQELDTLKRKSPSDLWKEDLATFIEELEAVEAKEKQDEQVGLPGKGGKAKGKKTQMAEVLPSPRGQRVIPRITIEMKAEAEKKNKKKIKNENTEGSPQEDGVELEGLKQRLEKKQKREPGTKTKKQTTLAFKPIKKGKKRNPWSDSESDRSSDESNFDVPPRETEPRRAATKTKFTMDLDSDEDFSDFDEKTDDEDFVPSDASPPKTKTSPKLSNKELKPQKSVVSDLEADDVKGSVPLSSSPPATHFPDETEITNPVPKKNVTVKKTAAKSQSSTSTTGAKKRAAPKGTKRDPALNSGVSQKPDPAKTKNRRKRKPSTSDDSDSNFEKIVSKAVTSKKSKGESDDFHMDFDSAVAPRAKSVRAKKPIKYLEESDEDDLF

[18] = target: T1, DNA topoisomerase 1 (Homo sapiens); experiment: Inhibition of Top1 (unknown origin)-mediated pBR322 DNA cleavage using ethidium bromide staining at 200 uM after 15 mins by electrophoresis analysis
Tubulin = experiment: Inhibition of brain tubulin (unknown origin) polymerization measured up to 15 to 30 mins; set-up: species or system Homo sapiens
Tubulin (Homo sapiens) = Tubulin (Homo sapiens) (UniProt P68371+Q9H4B7+P0DPH7+P68366+Q13509+Q71U36+P04350+Q3ZCM7+P07437+P68363+Q9BQE3+Q6PEY2+Q13885+Q9BVA1+Q9BUF5); experiment: Inhibition of brain tubulin (unknown origin) polymerization at 5 uM measured up to 15 to 30 mins

| inhibition [7] | inhibition [8] | inhibition [17] | inhibition [18] | Structure (SMILES) | IC50 (A549 [3]) [nM] | IC50 (HCT-116 [5]) [nM] | IC50 (MDA-MB-435) [nM] | other results |
| --- | --- | --- | --- | --- | --- | --- | --- | --- |
|  |  |  |  | CC[C@@]1(O)C(=O)OCc2c1cc1n(c2=O)Cc2cc3ccccc3nc2-1 [CAMPTOTHECIN] | 100 | 90 | 1000 | IC50 [1]: 140 nM; IC50 [2]: 960 nM; IC50 (NCI-H446): > 200000 nM; IC50 [4]: < 3 nM; IC50 (K562): < 3 nM; IC50 [6]: 710 nM; IC50 (PC-3): 2500 nM |
| Active | Active |  |  | COc1ccc2c(c1)C(=O)N1CCc3c([nH]c4ccc(OC)cc34)C1S2 (centres undefined) | 11300 | 20000 | 122000 |  |
| Active | Active |  |  | O=C1c2cc(F)ccc2SC2c3[nH]c4ccccc4c3CCN12 (centres undefined) | > 200000 | > 200000 | > 200000 |  |
| Active | Active |  |  | COc1ccc2[nH]c3c(c2c1)CCN1C(=O)c2cc(F)ccc2SC31 (centres undefined) | 1200 | 6500 | 3900 |  |
| Active | Active | Active | Active | O=C1c2cc(O)ccc2SC2c3[nH]c4ccc(O)cc4c3CCN12 (centres undefined) | 700 | < 3 | < 3 | IC50 [1]: < 3 nM; IC50 [2]: 490 nM; growth inhibition (GI) (HCT-116 [9]): Active; IC50 (NCI-H446): 16600 nM; IC50 [4]: 140 nM; IC50 (K562): < 3 nM; IC50 [6]: 3500 nM; IC50 (PC-3): < 3 nM |
| Active | Active |  |  | COc1ccc2[nH]c3c(c2c1)CCN1C(=O)c2cc(Br)ccc2SC31 (centres undefined) | 8200 | 2700 | 84700 |  |
| Active | Active |  |  | O=C1c2ccccc2S(=O)(=O)C2c3[nH]c4ccccc4c3CCN12 (centres undefined) | > 200000 | > 200000 | > 200000 |  |
|  |  |  |  | Cc1ccc2c(c1)OC1c3[nH]c4ccc(O)cc4c3CCN1C2=O (centres undefined) | 6500 | < 3 | < 3 | Activity (Mus musculus [13]): Non-toxic; Activity (Mus musculus [14]): Non-toxic; growth inhibition (GI) (A549 [15]): Active |
| Active | Active |  |  | O=C1c2cc(Cl)ccc2SC2c3[nH]c4ccccc4c3CCN12 (centres undefined) | 2100 | 29100 | 38800 |  |
|  |  | inactive | Active | O=C1c2ccccc2OC2c3[nH]c4ccc(O)cc4c3CCN12 (centres undefined) | 4000 | 2300 | 1400 |  |
| Active | Active | inactive | Active | COc1ccc2c(c1)C(=O)N1CCc3c([nH]c4ccc(O)cc34)C1S2 (centres undefined) | 300 | < 3 | < 3 | IC50 [1]: < 3 nM; IC50 [2]: 2200 nM; IC50 (NCI-H446): > 200000 nM; IC50 [4]: 1200 nM; IC50 (K562): < 3 nM; IC50 [6]: 7300 nM; IC50 (PC-3): 430 nM |
| Active | Active | Active | Active | COc1ccc2[nH]c3c(c2c1)CCN1C(=O)c2ccccc2S(=O)(=O)C31 (centres undefined) | > 200000 | > 200000 | > 200000 |  |
| Active | Active |  |  | COc1ccc2[nH]c3c(c2c1)CCN1C(=O)c2cc(Cl)ccc2SC31 (centres undefined) | 2300 | 2700 | 44100 |  |
| Active | Active |  |  | O=C1c2cccnc2SC2c3[nH]c4ccccc4c3CCN12 (centres undefined) | > 200000 | > 200000 | > 200000 |  |
|  |  | Active | Active | O=C1c2cc(O)ccc2OC2c3[nH]c4ccc(O)cc4c3CCN12 (centres undefined) | 3800 | 1200 | 800 | IC50 [1]: 60 nM; IC50 [2]: 1100 nM; growth inhibition (GI) (HCT-116 [9]): Active; IC50 (NCI-H446): > 200000 nM; IC50 [4]: 1200 nM; IC50 (K562): < 3 nM; IC50 [6]: 5150 nM; IC50 (PC-3): 840 nM |
|  |  | inactive | Active | Nc1ccc2c(c1)C(=O)N1CCc3c([nH]c4ccc(O)cc34)C1O2 (centres undefined) | 29100 | 500 | 600 |  |
| Active | Active | inactive | Active | O=C1c2ccccc2SC2c3[nH]c4ccccc4c3CCN12 (centres undefined) |  |  |  |  |
| Active | Active |  |  | O=C1c2cc(F)ccc2SC2c3[nH]c4ccc(O)cc4c3CCN12 (centres undefined) | 1200 | < 3 | < 3 |  |
|  |  | inactive |  | O=C1c2ccccc2S(=O)(=O)C2c3[nH]c4ccc(O)cc4c3CCN12 (centres undefined) | > 200000 | 46000 | > 200000 |  |
|  |  |  |  | CCC1=C[C@@H]2CN(C1)Cc1c([nH]c3ccccc13)[C@@](C(=O)OC)(c1cc3c(cc1OC)N(C)[C@H]1[C@@](O)(C(=O)OC)[C@H](OC(C)=O)[C@]4(CC)C=CCN5CC[C@]31[C@@H]54)C2 [VINORELBINE] |  |  |  | IC50 (Tubulin): 2000 nM |
| Active | Active | Active | Active | O=C1c2cc(Cl)ccc2SC2c3[nH]c4ccc(O)cc4c3CCN12 (centres undefined) | 20 | < 3 | < 3 | IC50 [1]: < 3 nM; IC50 [2]: 2100 nM; growth inhibition (GI) (HCT-116 [9]): Active; IC50 (NCI-H446): > 200000 nM; IC50 [4]: 1300 nM; IC50 (K562): < 3 nM; IC50 [6]: 6900 nM; IC50 (Tubulin): 4500 nM; inhibition (Tubulin (Homo sapiens)): 63%; IC50 (PC-3): 370 nM |
|  |  |  |  | CC(C)CNc1ccc2c(c1)C(=O)N1CCc3c([nH]c4ccccc34)C1O2 (centres undefined) | > 200000 | 5300 | > 200000 |  |

| Structure (SMILES) | inhibition [7] | inhibition [8] | inhibition [17] | inhibition [18] | IC50 (A549 [3]) [nM] | IC50 (HCT-116 [5]) [nM] | IC50 (MDA-MB-435) [nM] | other results |
| --- | --- | --- | --- | --- | --- | --- | --- | --- |
| O=C1c2ccccc2SC2c3[nH]c4ccc(O)cc4c3CCN12 (centres undefined) |  |  | inactive | Active | 50 | 40 | < 3 | growth inhibition (GI) (HCT-116 [9]): Active; Activity (A549 [10]): 6%; Activity (A549 [11]): Active; Activity (A549 [12]): Active; Activity (Mus musculus [13]): Non-toxic; Activity (Mus musculus [14]): Non-toxic; growth inhibition (GI) (A549 [15]): Active; Activity (A549 [16]): 68.2% |
| O=C1c2cc(Cl)ccc2OC2c3[nH]c4ccc(O)cc4c3CCN12 (centres undefined) |  |  | inactive | Active | 5200 | < 3 | 60 | IC50 [1]: < 3 nM; IC50 [2]: 1800 nM; growth inhibition (GI) (HCT-116 [9]): Active; IC50 (NCI-H446): > 200000 nM; Activity (A549 [10]): 6.7%; Activity (A549 [11]): Active; Activity (A549 [12]): Active; IC50 [4]: 1100 nM; Activity (Mus musculus [13]): Non-toxic; IC50 (K562): < 3 nM; IC50 [6]: 5560 nM; Activity (Mus musculus [14]): Non-toxic; growth inhibition (GI) (A549 [15]): Active; Activity (A549 [16]): 63.7%; IC50 (Tubulin): 5300 nM; inhibition (Tubulin (Homo sapiens)): 48%; IC50 (PC-3): 400 nM |
